# Molecular target: human V1a receptor (Homo sapiens (Human), UniProt P37288)
# Assay: human V1a receptor binding studies (3H-Vasopressin, SPA beads)
# Details: membranes of HEK293 cells transiently transfected with human V1a receptor, Ki by Cheng-Prussoff
# Procedure, shortened: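 Membranes from HEK293 cells transiently expressing cloned human V1a receptor, bound on yttrium silicate SPA beads with 4 nM 3H-vasopressin (added stock) and serially diluted compound, 1 h at room temperature. Non-specific binding defined with cold vasopressin; IC50 by non-linear regression, Ki via Cheng-Prusoff.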
# Sequence of human V1a receptor (P37288 whole entry): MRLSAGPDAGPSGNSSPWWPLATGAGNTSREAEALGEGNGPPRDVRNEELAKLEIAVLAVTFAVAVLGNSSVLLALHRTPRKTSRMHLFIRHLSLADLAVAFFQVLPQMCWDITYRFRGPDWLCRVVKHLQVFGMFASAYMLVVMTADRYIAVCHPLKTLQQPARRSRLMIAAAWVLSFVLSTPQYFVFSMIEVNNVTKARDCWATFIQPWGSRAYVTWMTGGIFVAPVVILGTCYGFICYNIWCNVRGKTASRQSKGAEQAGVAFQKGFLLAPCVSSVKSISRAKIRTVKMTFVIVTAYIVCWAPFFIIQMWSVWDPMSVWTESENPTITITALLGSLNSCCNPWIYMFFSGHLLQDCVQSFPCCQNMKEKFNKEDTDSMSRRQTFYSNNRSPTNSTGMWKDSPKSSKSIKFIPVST
row,SMILES,pKi hV1a
1,"CC(C)(C)[Si](C)(C)OC/C(=C1/SC(N2CCC3(CC2)OC(=O)c2ccccc23)=NC1=O)c1ccccc1 [Example 140, 1′-[(5E)-5-(2-{[tert-butyl(dimethyl)silyl]oxy}-1-phenylethylidene)-4-oxo-4,5-dihydro-1,3-thiazol-2-yl]-3H-spiro[2-benzofuran-1,4′-piperidin]-3-one]",8.9
2,"CC(C)(C)[Si](C)(C)OC/C(=C1\SC(N2CCC3(CC2)OC(=O)c2ccccc23)=NC1=O)c1ccc(Cl)nc1 [Example 146, 1′-{(5Z)-5-[2-{[tert-butyl(dimethyl)silyl]oxy}-1-(6-chloropyridin-3-yl)ethylidene]-4-oxo-4,5-dihydro-1,3-thiazol-2-yl}-3H-spiro[2-benzofuran-1,4′-piperidin]-3-one]",7.3
3,"CC/C(=C1\SC(N2CCC3(CC2)OC(=O)c2ccccc23)=NC1=O)c1ccc(Cl)nc1 [Example 149, 1′-{(5E)-5-[1-(6-chloropyridin-3-yl)propylidene]-4-oxo-4,5-dihydro-1,3-thiazol-2-yl}-3H-spiro[2-benzofuran-1,4′-piperidin]-3-one]",8.2
4,"O=C1N=C(N2CCC3(CC2)OCc2ccccc23)S/C1=C1/CCc2cc(Cl)ccc21 [Example 10, (5E/Z)-5-(5-chloro-2,3-dihydro-1H-inden-1-ylidene)-2-(1′H,3H-spiro[2-benzofuran-1,4′-piperidin]-1′-yl)-1,3-thiazol-4(5H)-one]",6.9
5,"C/C(=C1/SC(N2CCC3(CC2)OC(=O)c2ccccc23)=NC1=O)c1ccc(Cl)nc1 [Example 137, 1′-{(5Z)-5-[1-(6-chloropyridin-3-yl)ethylidene]-4-oxo-4,5-dihydro-1,3-thiazol-2-yl}-3H-spiro[2-benzofuran-1,4′-piperidin]-3-one]",8.0
6,"C/C(=C1/SC(N2CCC3(CC2)OCc2cccnc23)=NC1=O)c1ccc(Cl)cc1 [Example 2, (5E/Z)-5-[1-(4-chlorophenyl)ethylidene]-2-(1′H,5H-spiro[furo[3,4-b]pyridine-7,4′-piperidin]-1′-yl)-1,3-thiazol-4(5H)-one]",9.0
7,"C/C(=C1/SC(N2CCC3(CC2)OCc2ncccc23)=NC1=O)c1ccc(Cl)cc1 [Example 6, (5E/Z)-5-[1-(4-chlorophenyl)ethylidene]-2-(1′H,7H-spiro[furo[3,4-b]pyridine-5,4′-piperidin]-1′-yl)-1,3-thiazol-4(5H)-one]",9.3
8,"C/C(=C1/SC(N2CCC3(CC2)OCc2ccccc23)=NC1=O)C1CCCCC1 [Example 29, (5Z)-5-(1-cyclohexylethylidene)-2-(1′H,3H-spiro[2-benzofuran-1,4′-piperidin]-1′-yl)-1,3-thiazol-4(5H)-one]",8.7
9,"O=C1N=C(N2CCC3(CC2)OCc2ccccc23)S/C1=C1/CCc2cc(O)ccc21 [Example 54, (5E/Z)-5-(5-hydroxy-2,3-dihydro-1H-inden-1-ylidene)-2-(1′H,3H-spiro[2-benzofuran-1,4′-piperidin]-1′-yl)-1,3-thiazol-4(5H)-one]",7.5
10,"O=C1N=C(N2CCC3(CC2)OCc2ccccc23)SC1=C(C(F)(F)F)C(F)(F)F [Example 111, 5-(1,1,1,3,3,3-hexafluoropropan-2-ylidene)-2-(1′H,3H-spiro[2-benzofuran-1,4′-piperidin]-1′-yl)-1,3-thiazol-4(5H)-one]",7.5
11,"O=C1N=C(N2CCC3(CC2)OCc2ccccc23)S/C1=C1/CCCCc2ccc(Cl)cc21 [Example 89, (5E/Z)-5-(3-chloro-6,7,8,9-tetrahydro-5H-benzo[7]annulen-5-ylidene)-2-(1′H,3H-spiro[2-benzofuran-1,4′-piperidin]-1′-yl)-1,3-thiazol-4(5H)-one]",9.0
12,"C/C(=C1/SC(N2[C@@H]3CC[C@H]2C[C@@]2(C3)OC(=O)c3ccccc32)=NC1=O)c1ccc(Cl)cc1 [Example 5, 8-{(5E/Z)-5-[1-(4-chlorophenyl)ethylidene]-4-oxo-4,5-dihydro-1,3-thiazol-2-yl}-3′H-spiro[8-azabicyclo[3.2.1]octane-3,1′-[2]benzofuran]-3′-one]",8.9
13,"O=C1N=C(N2CCC3(CC2)OCc2ccccc23)SC1=C1CCOCC1 [Example 44, 2-(1′H,3H-spiro[2-benzofuran-1,4′-piperidin]-1′-yl)-5-(tetrahydro-4H-pyran-4-ylidene)-1,3-thiazol-4(5H)-one]",8.1

# Further lines, results first:
row,pKi hV1a,SMILES
1,8.6,"CC/C(=C1/SC(N2CCC3(CC2)OCc2ccccc23)=NC1=O)c1cc(C)on1 [Example 64, (5E/Z)-5-[1-(5-methyl-1,2-oxazol-3-yl)propylidene]-2-(1′H,3H-spiro[2-benzofuran-1,4′-piperidin]-1′-yl)-1,3-thiazol-4(5H)-one]"
2,7.7,"C/C(=C1\SC(N2CCC3(CC2)OCc2ccccc23)=NC1=O)c1cccnc1Cl [Example 84, (5E)-5-[1-(2-chloropyridin-3-yl)ethylidene]-2-(1′H,3H-spiro[2-benzofuran-1,4′-piperidin]-1′-yl)-1,3-thiazol-4(5H)-one]"
3,7.6,"C=C/C(C)=C1\SC(N2CCC3(CC2)OCc2ccccc23)=NC1=O [Example 70, (5E/Z)-5-(but-3-en-2-ylidene)-2-(1′H,3H-spiro[2-benzofuran-1,4′-piperidin]-1′-yl)-1,3-thiazol-4(5H)-one]"
4,8.0,"CC/C(=C1/SC(N2CCC3(CC2)OCc2ccccc23)=NC1=O)c1ccc(Cl)cc1 [Example 13, (5E/Z)-5-[1-(4-chlorophenyl)propylidene]-2-(1′H,3H-spiro[2-benzofuran-1,4′-piperidin]-1′-yl)-1,3-thiazol-4(5H)-one]"
5,7.1,"O=C1N=C(N2CCC3(CC2)OCc2ccccc23)SC1=C(c1ccc(Cl)cc1)c1ccc(Cl)cc1 [Example 100, 5-[bis(4-chlorophenyl)methylidene]-2-(1′H,3H-spiro[2-benzofuran-1,4′-piperidin]-1′-yl)-1,3-thiazol-4(5H)-one]"
6,8.9,"C/C(=C1/SC(N2CCC3(CC2)OCc2ccccc23)=NC1=O)c1oc(C)nc1C [Example 86, (5E/Z)-5-[1-(2,4-dimethyl-1,3-oxazol-5-yl)ethylidene]-2-(1′H,3H-spiro[2-benzofuran-1,4′-piperidin]-1′-yl)-1,3-thiazol-4(5H)-one]"
7,8.0,"O=C1N=C(N2CCC3(CC2)OCc2ccccc23)SC1=C(CF)CF [Example 69, 5-(1,3-difluoropropan-2-ylidene)-2-(1′H,3H-spiro[2-benzofuran-1,4′-piperidin]-1′-yl)-1,3-thiazol-4(5H)-one]"
8,7.6,"O=C1N=C(N2CCC3(CC2)OCc2ccccc23)SC1=C(c1cccnc1)c1cccnc1 [Example 119, 5-[di(pyridin-3-yl)methylidene]-2-(1′H,3H-spiro[2-benzofuran-1,4′-piperidin]-1′-yl)-1,3-thiazol-4(5H)-one]"
9,7.9,"CC/C(=C1\SC(N2CCC3(CC2)OCc2ccccc23)=NC1=O)c1ccncc1 [Example 32, (5E)-5-[1-(pyridin-4-yl)propylidene]-2-(1′H,3H-spiro[2-benzofuran-1,4′-piperidin]-1′-yl)-1,3-thiazol-4(5H)-one]"
10,8.9,"O=C1N=C(N2CCC3(CC2)OCc2ccccc23)S/C1=C(/CO)c1ccc(Cl)nc1 [Example 130, (5E)-5-[1-(6-chloropyridin-3-yl)-2-hydroxyethylidene]-2-(1′H,3H-spiro[2-benzofuran-1,4′-piperidin]-1′-yl)-1,3-thiazol-4(5H)-one]"
11,7.9,"CC(C)(C)/C(=C1/SC(N2CCC3(CC2)OCc2ccccc23)=NC1=O)c1ccc(Cl)cc1 [Example 21, (5E/Z)-5-[1-(4-chlorophenyl)-2,2-dimethylpropylidene]-2-(1′H,3H-spiro[2-benzofuran-1,4′-piperidin]-1′-yl)-1,3-thiazol-4(5H)-one]"
12,9.3,"CC(C)(C)OC(=O)NC/C(=C1/SC(N2CCC3(CC2)OCc2ccccc23)=NC1=O)c1ccccc1 [Example 159, tert-butyl {(2E/Z)-2-[4-oxo-2-(1′H,3H-spiro[2-benzofuran-1,4′-piperidin]-1′-yl)-1,3-thiazol-5(4H)-ylidene]-2-phenylethyl}carbamate]"
13,8.3,"C/C(=C1/SC(N2CCC3(CC2)OCc2ccccc23)=NC1=O)C(F)(F)F [Example 71, (5Z)-2-(1′H,3H-spiro[2-benzofuran-1,4′-piperidin]-1′-yl)-5-(1,1,1-trifluoropropan-2-ylidene)-1,3-thiazol-4(5H)-one]"
14,9.0,"O=C1N=C(N2CCC3(CC2)OCc2ccccc23)SC1=C(c1ccc[nH]1)c1ccc[nH]1 [Example 122, 5-(di-1H-pyrrol-2-ylmethylidene)-2-(1′H,3H-spiro[2-benzofuran-1,4′-piperidin]-1′-yl)-1,3-thiazol-4(5H)-one]"
15,8.5,"O=C1N=C(N2CCC3(CC2)OCc2ccccc23)S/C1=C(/c1ccc(Cl)cc1)C(F)(F)F [Example 17, (5Z)-5-[1-(4-chlorophenyl)-2,2,2-trifluoroethylidene]-2-(1′H,3H-spiro[2-benzofuran-1,4′-piperidin]-1′-yl)-1,3-thiazol-4(5H)-one]"
16,7.6,"O=C1N=C(N2CCC3(CC2)OCc2ccccc23)SC1=C(c1ccccn1)c1ccccn1 [Example 110, 5-[di(pyridin-2-yl)methylidene]-2-(1′H,3H-spiro[2-benzofuran-1,4′-piperidin]-1′-yl)-1,3-thiazol-4(5H)-one]"
17,8.5,"C/C(=C1/SC(N2CCC3(CC2)OCc2ccccc23)=NC1=O)c1ccccc1Cl [Example 14, (5E/Z)-5-[1-(2-chlorophenyl)ethylidene]-2-(1′H,3H-spiro[2-benzofuran-1,4′-piperidin]-1′-yl)-1,3-thiazol-4(5H)-one]"
18,9.4,"C/C(=C1/SC(N2CCC3(CC2)OCc2ccccc23)=NC1=O)c1ccc(Cl)nc1 [Example 96, (5Z)-5-[1-(6-chloropyridin-3-yl)ethylidene]-2-(1′H,3H-spiro[2-benzofuran-1,4′-piperidin]-1′-yl)-1,3-thiazol-4(5H)-one]"

# — patent US10092551B2, “Spiro-thiazolones” (Hoffmann-La Roche Inc., priority 2014, dated 2018)
